How the values were obtained:
ykt6 SNARE complexes = experiment: SEC/western blot of ykt6 SNARE complexes in FTI-treated cultures; type: cell-based, human; conditions: SH-SY5Y cells, confirmed in A53T iPSn
Experimental: FIGS. 5A, 5B, 5C, 5D, 5E, 5F, and 5G. Reducing farnesyl-ykt6 enhances SNARE assembly and improves the lysosomal targeting of GCase. 5A) Ykt6 membrane shift analysis of SH-SY5Y cells expressing GFP-ykt6 wt or CS (n=3). 5B) Co-IP of GFP-ykt6 and bet1 in A53T iPSn (n=3). 5C) Ykt6 membrane shift analysis in FTI-treated SH-SY5Y wt a-syn cells or A53T iPSn (5 nM farnesyltransferase inhibitors (FTI) LNK-754 (FTI-1) or LNK-3248 (FTI-2) for 5 days) (n=4). Sec22b was measured to assess specificity. 5D) SEC/western blot of FTI-1 treated SH-SY5Y cells. Quantification is shown below. 5E) Co-IP of GFP-ykt6 wt or mutant ykt6-SS, (cannot be palmitoylated or farnesylated) in FTI-treated SHSY5Y cells (5 nM LNK-754, 5d) (n=2). 5F) Immunofluorescence of GCase and LAMP2A in FTI-treated H4 a-syn cells transfected with scrambled (scrb) or ykt6 shRNA (n=3). Scale bar=10 um. 5G) GCase maturation analysis in FTI-treated A53T iPSn by endo H (n=3). Values are the mean+/−SEM, *p<0.05.
Size exclusion chromatography analysis. Cultures or PD brain (cingulate cortex, previously described (Mazzulli et al., 2011)) were homogenized as described above in 1% Triton buffer, centrifuged at 100,000×g for 30 min at 4° C. […]
Treatment of cultures with farnesyltransferase inhibitors. […] Cultures were harvested and analyzed as described in the above sections.

human A53T a-syn = experiment: FTI treatment of DASYN53 mice: soluble and insoluble a-syn in midbrain; type: in vivo; conditions: i.p. 0.9 mg/kg, 26d
Text: FIGS. 8A, 8B, 8C, 8D, 8E, and 8F. FTI treatment enhances GCase activity and reduces pathological a-syn in transgenic mice. 8A) GCase activity in the midbrain of FTI (LNK-754)-treated DASYN53 mice (treated as in FIG. 7) (n=4, veh; n=5, FTI). 8B & 8C) Quantification of soluble and insoluble a-syn from midbrains of FTI-treated DASYN53 mice normalized to total protein (CBB). Syn211 is selective for human (hu) a-syn; C20 and syn303 detect mouse (ms) and hu a-syn, (n=3, nTg+Veh; n=4, DASYN53+veh; n=5 DASYN53+FTI). 8D) Midbrain TH levels were quantified by western blot of FTI-treated DASYN53 mice (n=3). 8E) Body weight of FTI-treated DASYN53 mice (n=9, nTg+Veh; n=7, DASYN53+veh; n=7 DASYN53+FTI). 8F) Rotarod test of FTI-treated DASYN53 mice (n=12, nTg+Veh; n=7, DASYN53+veh; n=7 DASYN53+FTI). Values are the mean+/−SEM. *p<0.05, **p<0.01, and *** p<0.001. Student's t-test, panel A; ANOVA with Tukey's posthoc test, panels B-F.
Sequential biochemical extraction for the analysis of pathological a-synuclein. Cells were harvested in phosphate buffered saline (PBS), pH 7.4, and pelleted by centrifugation at 400×g for 5 minutes. […] Protein concentration was measured by BCA assay (Pierce). […]

ykt6 = experiment: Ykt6 in red blood cells of FTI-treated mice; type: in vivo; conditions: WT mice
Text: FIG. 20. Ykt6 in red blood cells of human and mice. A) Fractionation of RBCs/western blot of ykt6. Markers indicate efficient separation of cytosol (GAPDH) and membrane (Ank, Ankyrin-1). […] B) Ykt6 from RBCs of nTg of symptomatic 12 mo old A53T mice (ref 12) (n=3-5).
(See FIG. 20A). […] (See FIG. 20C).

C#Cc1cccc(-c2cc(=O)n(C)c3ccc([C@](O)(c4ccc(Cl)cc4)c4cncn4C)cc23)c1 [LNK-754]
levels of ykt6 SNARE complexes by SEC (ykt6 SNARE complexes): elevated the levels of ykt6 SNARE complexes | soluble and insoluble A53T a-syn in midbrain extracts (human A53T a-syn): reduce soluble and insoluble A53T a-syn | membrane Ykt6 in red blood cells (ykt6): increases membrane Ykt6 | membrane Ykt6 in red blood cells (ykt6; listed as FTI): activation of ykt6 in red blood cells
